Measurements: paper PMC8765781, “A platform of assays for the discovery of anti-Zika small-molecules with activity in a 3D-bioprinted outer-blood-retina model” (PLoS ONE, 2022)
Like-named read-outs stand apart in the source and are kept apart here.

Test system: wild-type ZIKV (Ugandan MR766 strain) in Vero cells
Assay: ZIKV cytopathic effect (CPE) inhibition qHTS assay, CellTiter-Glo readout
Assay type: cell-based, Zika virus
Settings: for Emax: read-out: Max response
[1] = Zika virus, Vero, read-out: Log AC50 (M) (converted)
[2] = Zika virus, Vero, from Hill fit of the response curve, 50% of maximum activity response, 194 cherry-picked compounds, protocol name not given, read-out: AC50
[3] = Zika virus, Vero, potency in log units (Molar) from Hill fit of the response curve, 194 cherry-picked compounds, protocol name not given, read-out: Log AC50 (converted)
[4] = curve class v2 (Inglese et al. 2006)
[5] = difference between neutral response and maximum compound response
[6] = Zika virus, Vero, read-out: Log AC50 (converted)

Row | SMILES | Efficacy | AC50 (Zika virus, Vero) | AC50 [1] | CC-v2 (curve class classification of the dose response curve) | further results
1 | CC(=O)OC[C@]12C[C@H](OC(C)=O)C(C)=C[C@H]1O[C@@H]1[C@H](O)[C@@H](O)[C@@]2(C)[C@]12CO2 [NCGC00381306-01] | -39.385 | – | – | – | Log AC50 (M): -5.644 M; Max Resp: -23.356; AC50 (read-out: AC50): 2.27e-06 M
2 | C/C=C(\C)C(=O)O[C@H]1C=CC(=O)O[C@H]1/C=C/[C@@H](O)[C@H](C)O [NCGC00380589-01] | -37.007 | 6.51e-05 M | 6.51e-05 M | – | –
3 | C=Cc1cc2oc(-c3ccc(O)c(F)c3)nc2cc1O [NCGC00485115-01] | -24.649 | 6.51e-05 M | 6.51e-05 M | – | –
4 | COC(=O)[C@]12CCC(C)(C)C[C@H]1[C@H]1C(=O)C=C3[C@@]4(C)C=C(C#N)C(=O)C(C)(C)[C@@H]4CC[C@@]3(C)[C@]1(C)CC2 [NCGC00186460, bardoxolone methyl, reference compound] | – | – | – | – | Identified as active in CPE assay validation set: identified
5 | C/C=C(\C)C(=O)O[C@H]1C=C(CO)C(=O)[C@H](OC(C)=O)[C@H]1C(C)C [NCGC00180769-03] | -32.712 | 4.53e-05 M | 4.53e-05 M | -3 | –
6 | Cc1nc[nH]c1C1CCN(c2nc3cccc4c3n2CCC4=O)CC1 [NCGC00370838-01] | -41.62 | 1.84e-05 M | 1.84e-05 M | -3 | –
7 | Nc1cccc(CNC(=O)c2ccc(Oc3ccc(OCc4cccc(F)c4)cc3)nc2)c1 [NCGC00379156-01] | -30.412 | 7.31e-05 M | 7.31e-05 M | – | –
8 | C=C(C)C(=O)O[C@H]1[C@H]2C(=C)C(=O)O[C@@H]2C[C@@H](C)[C@@H]2O[C@@H]2C(=O)[C@](C)(O)[C@@H]1OC(=O)C(=C)C [NCGC00169479-03] | -35.91 | 3.55e-05 M | 3.55e-05 M | -3 | –
9 | C[C@@]1(O)[C@H](O)[C@@H](CO)O[C@H]1n1cnc2c(=O)[nH]c(N)nc21 [NCGC00485409-01] | -27.977 | 3.66e-05 M | 3.66e-05 M | – | –
10 | C/C(=N\NC(=N)N)c1cc(NC(=O)CCCCCCCCC(=O)Nc2cc(/C(C)=N/NC(=N)N)cc(/C(C)=N/NC(=N)N)c2)cc(/C(C)=N/NC(=N)N)c1 [NCGC00487056-01] | -56.895 | 5.8e-05 M | 5.8e-05 M | -2.2 | –
11 | CCOCCn1nc(CC)c2nc(N3CCC(C(=O)O)CC3)nc(Nc3cc(C)ccn3)c21 [NCGC00386619-01] | -25.995 | 4.11e-05 M | 4.11e-05 M | – | –
12 | CCC(C)C(=O)OC1CC(O)C23C4OCC5(C(O)CC2C1(C)C(O)O4)C3C(=O)CC1(C)C(c2ccoc2)CC2OC215 (centres unmarked) [NCGC00381227-01] | – | – | – | – | AC50 [2]: 6.32e-06 M; AC50 [3]: 6.32e-06 M; CC-v2 (curve class classification of the dose response curve) [4]: -2.2; Efficacy [5]: -29.737
13 | CN(C)CC1CCn2c(c(C3=C(c4cn(C)c5ccccc45)C(=O)NC3=O)c3ccccc32)C1 (centres unmarked) [NCGC00163696-04] | -28.697 | 3.26e-05 M | 3.26e-05 M | – | –
14 | CCCOc1ccc([S+](=O)([O-])N2CCN(CCO)CC2)cc1-c1nc2c(CCC)cn(CC)c2c(=O)[nH]1 [NCGC00378703-02] | -30.503 | 5.8e-05 M | 5.8e-05 M | – | –
15 | C=C(C(=O)O[C@H]1C/C(C)=C/CC/C(CO)=C/[C@H]2OC(=O)C(=C)[C@H]12)C(O)CO (some centres unmarked) [NCGC00385206-01] | -104.223 | 4.53e-05 M | 4.53e-05 M | -3 | –
16 | Cn1cc(-c2ccncc2)c(-c2ccc(OCc3ccc4ccccc4n3)cc2)n1 [NCGC00346630-05] | -23.654 | 2.59e-05 M | 2.59e-05 M | – | –
17 | C=CC(=O)Nc1ccc2ncnc(Nc3cccc(Br)c3)c2c1 [NCGC00386260-02] | -35.975 | 7.31e-05 M | – | – | Curve class: -3; AC50 [6]: > 4.6e-05 M; Emax (Zika virus, Vero): -31.6%
18 | C[C@@H]1CCC2C(C)(C)[C@H](O)CC[C@]2(C)[C@@]12Cc1c(O)cc3c(c1O2)CN(CCO)C3=O (some centres unmarked) [NCGC00381123-01] | -75.159 | 8.93e-06 M | 8.93e-06 M | -3 | –
19 | C[C@H]1C(=O)N2c3ccccc3[C@@]3(O)C[C@@H]4C(=O)N[C@](C)(c5nc6ccccc6c(=O)n54)N1[C@@H]23 [NCGC00169614-02] | -78.987 | 1.59e-05 M | – | – | Curve class: -3; AC50 [6]: 1.59e-05 M; Emax (Zika virus, Vero): 0.173%
20 | COc1c(Cl)cc2c([nH]c3cnccc32)c1NC(=O)c1cccnc1C [NCGC00263021-04] | -34.501 | 6.51e-05 M | 6.51e-05 M | -2.2 | –

Row | SMILES | Efficacy | AC50 (Zika virus, Vero) | AC50 [1] | CC-v2 (curve class classification of the dose response curve) | further results
21 | COc1cc(Nc2nc3ccccc3nc2N[S+](=O)([O-])c2ccc(NC(=O)c3ccc(C)c(OC)c3)cc2)cc(OC)c1 [NCGC00346541-08] | -33.022 | 5.8e-05 M | 5.8e-05 M | – | –
22 | Cc1cc(C(=O)Nc2cccc(C(=O)Nc3cccc(C(F)(F)F)c3)c2)on1 [NCGC00387256-02] | -18.226 | 7.31e-05 M | 7.31e-05 M | – | –
23 | C=C1C(=O)CC2OC2(C)CC2OC(=O)C(=C)C2C(O)C1OC(=O)/C(C)=C\C (centres unmarked) [NCGC00380095-01] | -52.521 | 4.53e-05 M | 4.53e-05 M | -3 | –
24 | C/C=C(/C)C(=O)OC1CC(C)(C)CC2C3=CCC4C5(C)CCC(O[C@@H]6O[C@H](C(=O)O)[C@@H](O)[C@H](O)[C@H]6O[C@@H]6O[C@H](CO)[C@H](O)[C@H](O[C@@H]7OC[C@H](O)[C@H](O)[C@H]7O[C@@H]7O[C@H](CO)[C@@H](O)[C@H](O)[C@H]7O)[C@H]6O)C(C)(C)C5CCC4(C)C3(C)C(O)C(O)C12CO (some centres unmarked) [NCGC00386019-01] | -41.4 | 9.77e-06 M | 9.77e-06 M | – | –
25 | C=C(C)C1=C[C@@]2(C)C(=CC1=O)CC[C@@H](O)[C@@H]2C [NCGC00180357-02] | -25.033 | 1.46e-05 M | 1.46e-05 M | – | –
26 | O=C(O)C[C@H]1CC[C@H](c2ccc(-c3ccc(Nc4ccc(C(F)(F)F)nc4)cn3)cc2)CC1 [NCGC00378933-01] | -46.182 | 5.8e-05 M | 5.8e-05 M | -3 | –
27 | C=C1C(=O)O[C@@H]2C(OC(=O)/C(C)=C\C)/C(C)=C\C(=O)/C=C(\C)C[C@H](O)[C@@H]12 (some centres unmarked) [NCGC00381208-01] | -35.291 | 5.08e-05 M | 5.08e-05 M | -3 | –
28 | CC1=CC(=O)[C@@H](O)[C@]2(C)C3[C@@H](O)[C@@H]4OC(=O)[C@@H]([C@H]4C)[C@]3(C)C(=O)[C@H](O)[C@@H]12 (some centres unmarked) [NCGC00384766-01] | – | – | – | – | AC50 [2]: 9.04e-06 M; AC50 [3]: 9.04e-06 M; Efficacy [5]: -50.694
29 | COc1ccc(CC2C(=O)NC(C)C(=O)N(C)C3Cc4ccc(cc4)Oc4cc(ccc4OC4OC(CO)C(O)C(O)C4O)CC(C(=O)NC(C)C(=O)NC(CCC(=O)O)C(=O)N2C)N(C)C3=O)cc1 (centres unmarked) [NCGC00385295-01] | -76.149 | 4.91e-06 M | 4.91e-06 M | -2.2 | –
30 | COc1ccc(CC2C(=O)NC(C)C(=O)N(C)C3Cc4ccc(cc4)Oc4cc(ccc4OC4OC(CO)C(O)C(O)C4O)CC(C(=O)NC(C)C(=O)NC(C)C(=O)N2C)N(C)C3=O)cc1 (centres unmarked) [NCGC00384826-01] | – | – | – | – | AC50 [2]: 6.18e-06 M; AC50 [3]: 6.18e-06 M; CC-v2 (curve class classification of the dose response curve) [4]: -2.2; Efficacy [5]: -63.548
31 | CC1=CC(=O)[C@@H](O)[C@@]2(C)C1C[C@H]1OC(=O)[C@H](O)[C@@]3(O)[C@@H](C)[C@@H](O)[C@H](O)C2[C@@]13C (some centres unmarked) [NCGC00347801-02] | -51.479 | 1.43e-05 M | 1.43e-05 M | -1.2 | –
32 | CCOC(=O)C1=C(N)Oc2ccc(Cl)cc2C1C(C#N)C(=O)OCC (centres unmarked) [NCGC00387181-02] | -45.481 | 3.66e-05 M | 3.66e-05 M | -2.2 | –
33 | CC1(C)CC[C@]2(C(=O)O)CC[C@]3(C)C(=CCC4[C@@]5(C)CC[C@H](O[C@@H]6O[C@H](C(=O)O)[C@@H](O[C@@H]7OC[C@@H](O)[C@H](O)[C@H]7O)[C@H](O)[C@H]6O)C(C)(C)C5CC[C@]43C)C2C1O (some centres unmarked) [NCGC00179805-02] | -39.908 | 2.73e-05 M | 2.73e-05 M | -3 | –
34 | Cc1cc2sc(NC(=O)Cc3ccccc3)nc2cc1Cl [NCGC00371143-05] | -24.072 | 5.8e-05 M | 5.8e-05 M | – | –
35 | Cc1cc(C)c(-c2csc(NC(=O)c3ccccc3)n2)c(C)c1 [NCGC00386342-01] | -75.252 | 2.31e-05 M | – | – | Curve class: -3; AC50 [6]: 2.31e-05 M; Emax (Zika virus, Vero): 8.19%
36 | C=C[C@H]1[C@H](O[C@@H]2O[C@H](CO)[C@@H](O)[C@H](O)[C@H]2O)OC=C2C(=O)OCC[C@H]21 [NCGC00180755-03] | – | – | – | – | AC50 [2]: 1.28e-05 M; AC50 [3]: 1.28e-05 M; CC-v2 (curve class classification of the dose response curve) [4]: -3; Efficacy [5]: -78.228
37 | O=C(O)c1ccc2c(c1)nc(Nc1cccc(Cl)c1)c1ccncc12 [NCGC00485907-01] | -41.903 | 6.51e-05 M | 6.51e-05 M | – | –
38 | CC[C@H](CC#N)OC(=O)N[C@@H](C)c1cccc(NC(=O)Nc2ccc(-c3cnco3)c(OC)c2)c1 [NCGC00345803-05] | -31.6 | 7.31e-05 M | 7.31e-05 M | – | –
39 | CC(C)=CCC/C(C)=C/COCC1OC(n2ccc(=O)[nH]c2=O)C(O)C1O (centres unmarked) [NCGC00386057-01] | -46.076 | 4.53e-05 M | 4.53e-05 M | – | –
40 | CCCNc1ccc2ncc(-c3ccc4[nH]ncc4c3)n2n1 [NCGC00370724-05] | -62.08 | 5.8e-05 M | 5.8e-05 M | -2.2 | –
